{"source": "patent US12351555B2", "about": "“Process for synthesizing apremilast” (AMGEN INC., priority 2021, dated 2025)", "experiment": "Moisture sorption analysis (DVS) of crystal Form B of apremilast", "format": "physicochemical", "excerpt": "FIG. 3B depicts a representative DVS plot of crystal Form B of apremilast.\nThe crystalline apremilast formed in the disclosed processes can be any crystalline form. Various crystalline apremilast forms are described in detail in PCT Publication No. WO 2009/120167, the disclosure of which is incorporated by reference in its entirety. In various embodiments, the crystalline apremilast formed by the processes disclosed herein can be Form A, Form B, or Form F. In some cases, the crystalline apremilast is Form B. Form B may be characterized by X-ray powder diffraction analysis. In certain embodiments, Form B is characterized by XRPD peaks located at one, two, three, four, five, six, seven, eight, nine, ten, eleven or twelve of the following approximate positions: 10.1, 12.4, 13.5, 15.7, 16.3, 18.1, 20.7, 22.5, 24.7, 26.2, 26.9, 29.1 degrees 2θ. […] In certain embodiments, Form B may be characterized by thermal analysis. In certain embodiments, Form B is characterized by a DSC plot comprising an endothermic event with an onset temperature of about 154° C. In certain embodiments, Form B is characterized by a TGA plot comprising a mass loss of less than about 1%, e.g., about 0.25%, of the total mass of the sample upon heating from about 25° C. to about 140° C. […] In certain embodiments, Form B is anhydrous. In certain embodiments, Form B is unsolvated. In certain embodiments, Form B may be characterized by moisture sorption analysis. […] In certain embodiments, mass gained upon adsorption is lost when the RH is decreased back to about 0% RH."}
{"smiles": "CCOc1cc(C(CS(C)(=O)=O)N2C(=O)c3cccc(NC(C)=O)c3C2=O)ccc1OC", "note": "(single isomer, unassigned; (+)) [Form B, (+)-2-[1-(3-ethoxy-4-methoxyphenyl)-2-methylsulfonylethyl]-4-acetylaminoisoindoline-1,3-dione]", "values": [{"measurement": "stability with respect to humidity", "value": "stable with respect to humidity"}, {"measurement": "XRPD pattern following the adsorption/desorption analysis", "setting": "after adsorption/desorption analysis", "value": "substantially unchanged"}, {"measurement": "hygroscopicity", "setting": "moisture sorption analysis", "value": "substantially nonhygroscopic"}]}
